Measured values taken from PubChem BioAssay (NCI).
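Growth conditions: 96-well plates. Treatment: test compound, 48 hours, 5 concentrations. Analysis: linear interpolation between bracketing concentrations; unreached endpoints set to highest concentration. The concentration for full growth arrest is given as TGI.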

Tests used:
Test in all cases: inhibition of tumour cell growth, NCI panel, 48 h
UACC-62 melanoma = tested on: UACC-62 melanoma
DU-145 prostate = tested on: DU-145 prostate
SF-539 CNS = tested on: SF-539 CNS
SF-295 CNS = tested on: SF-295 CNS
MOLT-4 leukemia = tested on: MOLT-4 leukemia
UACC-257 melanoma = tested on: UACC-257 melanoma
HT29 colon = tested on: HT29 colon
HL-60(TB) leukemia = tested on: HL-60(TB) leukemia
UO-31 renal = tested on: UO-31 renal
MCF7 breast = tested on: MCF7 breast
SN12C renal = tested on: SN12C renal
SK-MEL-5 melanoma = tested on: SK-MEL-5 melanoma
K-562 leukemia = tested on: K-562 leukemia
IGROV1 ovarian = tested on: IGROV1 ovarian
A549 NSCLC = tested on: A549 NSCLC
OVCAR-3 ovarian = tested on: OVCAR-3 ovarian
OVCAR-5 ovarian = tested on: OVCAR-5 ovarian
TK-10 renal = tested on: TK-10 renal
CAKI-1 renal = tested on: CAKI-1 renal
COLO 205 colon = tested on: COLO 205 colon
SF-268 CNS = tested on: SF-268 CNS
NCI/ADR-RES ovarian = tested on: NCI/ADR-RES ovarian
BT-549 breast = tested on: BT-549 breast
NCI-H522 lung = tested on: NCI-H522 lung
NCI-H226 lung = tested on: NCI-H226 lung
LOX IMVI melanoma = tested on: LOX IMVI melanoma
U251 CNS = tested on: U251 CNS
SW-620 colon = tested on: SW-620 colon
CCRF-CEM leukemia = tested on: CCRF-CEM leukemia
SK-MEL-28 melanoma = tested on: SK-MEL-28 melanoma
SR leukemia = tested on: SR leukemia
MDA-MB-435 = tested on: MDA-MB-435
786-0 renal = tested on: 786-0 renal
PC-3 prostate = tested on: PC-3 prostate
M14 melanoma = tested on: M14 melanoma
SK-OV-3 ovarian = tested on: SK-OV-3 ovarian
HCT-116 colon = tested on: HCT-116 colon
MDA-MB-231 breast = tested on: MDA-MB-231 breast
A498 renal = tested on: A498 renal
SK-MEL-2 melanoma = tested on: SK-MEL-2 melanoma
SNB-19 CNS = tested on: SNB-19 CNS
EKVX NSCLC = tested on: EKVX NSCLC
NCI-H23 lung = tested on: NCI-H23 lung
RPMI-8226 leukemia = tested on: RPMI-8226 leukemia
HOP-62 NSCLC = tested on: HOP-62 NSCLC
T-47D breast = tested on: T-47D breast
OVCAR-4 ovarian = tested on: OVCAR-4 ovarian
MALME-3M melanoma = tested on: MALME-3M melanoma
OVCAR-8 ovarian = tested on: OVCAR-8 ovarian
ACHN renal = tested on: ACHN renal
KM12 colon = tested on: KM12 colon
HCT-15 colon = tested on: HCT-15 colon
HS 578T breast = tested on: HS 578T breast
NCI-H460 lung = tested on: NCI-H460 lung
HCC-2998 colon = tested on: HCC-2998 colon
MDA-N = tested on: MDA-N
SNB-75 CNS = tested on: SNB-75 CNS

Measured: TGI

CN(C(=O)OC(C)(C)C)[C@H]1CCCC[C@H]1N1CCCC1
> 100 µM: UACC-62 melanoma | DU-145 prostate | SF-539 CNS | SF-295 CNS | MOLT-4 leukemia | UACC-257 melanoma | HT29 colon | HL-60(TB) leukemia | UO-31 renal | MCF7 breast | SN12C renal | SK-MEL-5 melanoma | K-562 leukemia | IGROV1 ovarian | A549 NSCLC | OVCAR-3 ovarian | OVCAR-5 ovarian | TK-10 renal | CAKI-1 renal | COLO 205 colon | SF-268 CNS | NCI/ADR-RES ovarian | BT-549 breast | NCI-H522 lung | NCI-H226 lung | LOX IMVI melanoma | U251 CNS | SW-620 colon | CCRF-CEM leukemia | SK-MEL-28 melanoma | SR leukemia | MDA-MB-435 | 786-0 renal | PC-3 prostate | M14 melanoma | SK-OV-3 ovarian | HCT-116 colon | MDA-MB-231 breast | A498 renal | SK-MEL-2 melanoma | SNB-19 CNS | EKVX NSCLC | NCI-H23 lung | RPMI-8226 leukemia | HOP-62 NSCLC | T-47D breast | OVCAR-4 ovarian | MALME-3M melanoma | OVCAR-8 ovarian | ACHN renal | KM12 colon | HCT-15 colon | HS 578T breast

N=c1c2c(ncn1N)Oc1c(c(-c3ccccc3)nn1-c1ccccc1)C2c1ccc(Cl)cc1 (stereo unspecified)
3.02 µM: HOP-62 NSCLC
4.5 µM: SW-620 colon
3.08 µM: HCC-2998 colon
3.37 µM: SK-OV-3 ovarian
5.21 µM: MDA-MB-231 breast
3.16 µM: UACC-62 melanoma
3.47 µM: TK-10 renal
> 100 µM: MOLT-4 leukemia | HL-60(TB) leukemia | K-562 leukemia | CCRF-CEM leukemia | SR leukemia | RPMI-8226 leukemia
3.65 µM: HCT-15 colon
4.99 µM: T-47D breast
2.99 µM: NCI-H460 lung | KM12 colon
3.03 µM: HCT-116 colon
3.86 µM: MDA-N
3.24 µM: OVCAR-4 ovarian
2.93 µM: OVCAR-5 ovarian
2.8 µM: IGROV1 ovarian
3.31 µM: NCI-H23 lung
4.32 µM: A498 renal
3.18 µM: M14 melanoma
2.86 µM: SNB-19 CNS
3.71 µM: UACC-257 melanoma | CAKI-1 renal
2.83 µM: SNB-75 CNS
3.39 µM: EKVX NSCLC
3.89 µM: SN12C renal
3.46 µM: MDA-MB-435 | ACHN renal
2.77 µM: HT29 colon
3.01 µM: PC-3 prostate
3.11 µM: OVCAR-3 ovarian
3.1 µM: SK-MEL-2 melanoma | MALME-3M melanoma
